Results: the NIST ThermoML archive (doi:10.1016/j.jct.2016.03.026)
Numbers after ± are expanded uncertainties.

Assay: xn = mol fraction of the nth substance listed
Settings: 263.15 K, Fluid (supercritical or subcritical phases), Vibrating tube method, x1 = 0.97

O=C=O [carbon dioxide] + CO
Settings | mass density [kg/m3]
10575 kPa | 1020.02 ± 0.8
10600 kPa | 1020.11 ± 0.8
10625 kPa | 1020.19 ± 0.8
10650 kPa | 1020.27 ± 0.8
10675 kPa | 1020.44 ± 0.8
10700 kPa | 1020.52 ± 0.8
10725 kPa | 1020.6 ± 0.8
10750 kPa | 1020.68 ± 0.8
10775 kPa | 1020.76 ± 0.8
10800 kPa | 1020.93 ± 0.8
10825 kPa | 1021.01 ± 0.8
10850 kPa | 1021.09 ± 0.8
10875 kPa | 1021.17 ± 0.8
10900 kPa | 1021.25 ± 0.8
10925 kPa | 1021.42 ± 0.8
10950 kPa | 1021.5 ± 0.8
10975 kPa | 1021.58 ± 0.8
11000 kPa | 1021.66 ± 0.8
11025 kPa | 1021.83 ± 0.8
11050 kPa | 1021.91 ± 0.8
11075 kPa | 1021.99 ± 0.8
11100 kPa | 1022.07 ± 0.8
11125 kPa | 1022.15 ± 0.8
11150 kPa | 1022.29 ± 0.8
11175 kPa | 1022.4 ± 0.8
11200 kPa | 1022.48 ± 0.8
11225 kPa | 1022.56 ± 0.8
11250 kPa | 1022.64 ± 0.8
11275 kPa | 1022.8 ± 0.8
11300 kPa | 1022.89 ± 0.8
11325 kPa | 1022.97 ± 0.8
11350 kPa | 1023.05 ± 0.8
11375 kPa | 1023.13 ± 0.8
11400 kPa | 1023.29 ± 0.8
11425 kPa | 1023.38 ± 0.8
11450 kPa | 1023.46 ± 0.8
11475 kPa | 1023.54 ± 0.8
11500 kPa | 1023.62 ± 0.8
11525 kPa | 1023.75 ± 0.8
11550 kPa | 1023.86 ± 0.8
11575 kPa | 1023.95 ± 0.8
11600 kPa | 1024.03 ± 0.8
11625 kPa | 1024.11 ± 0.8
11650 kPa | 1024.21 ± 0.8
11675 kPa | 1024.35 ± 0.8
11700 kPa | 1024.44 ± 0.8
11725 kPa | 1024.52 ± 0.8
11750 kPa | 1024.6 ± 0.8
11775 kPa | 1024.74 ± 0.8
11800 kPa | 1024.84 ± 0.8
11825 kPa | 1024.93 ± 0.8
11850 kPa | 1025.01 ± 0.8
11875 kPa | 1025.09 ± 0.8
11900 kPa | 1025.19 ± 0.8
11925 kPa | 1025.29 ± 0.8
11950 kPa | 1025.41 ± 0.8
11975 kPa | 1025.5 ± 0.8
12000 kPa | 1025.58 ± 0.8
12025 kPa | 1025.66 ± 0.8
12050 kPa | 1025.75 ± 0.8
12075 kPa | 1025.9 ± 0.8
